According to ChEMBL document CHEMBL1135126, “Identification of novel antifungal nonapeptides through the screening of combinatorial peptide libraries based on a hexapeptide motif” (Bioorg Med Chem Lett, 2002):
In brackets after ≈: the same amount, converted by molar mass. Where a SMILES comes first, the peptide text is derived from it. [ ]: non-standard residue; d: D form.

Columns and labels:
Candida albicans = test: Concentration that substantially inhibit growth of Candida albicans; type: functional, organism-based
Cryptococcus neoformans = test: Concentration that substantially inhibit the growth of Cryptococcus neoformans; type: functional

SMILES	MIC (Cryptococcus neoformans)	IC50 (Candida albicans)
CC[C@H](C)[C@H](NC(=O)[C@@H](Cc1ccccc1)NC(=O)[C@@H](Cc1c[nH]c2ccccc12)NC(=O)[C@@H](N)CCCN=C(N)N)C(=O)N[C@H](Cc1ccccc1)C(=O)N[C@@H](Cc1c[nH]cn1)C(=O)N[C@@H](CCCCN)C(=O)N[C@@H](CCCN=C(N)N)C(=O)N[C@@H](CCSC)C(N)=O	2.36 µM (≈ 3.11 µg/mL)	4.62 µM
CC[C@H](C)[C@H](NC(=O)[C@@H](Cc1ccccc1)NC(=O)[C@@H](Cc1c[nH]c2ccccc12)NC(=O)[C@@H](N)CCCN=C(N)N)C(=O)N[C@H](Cc1ccccc1)C(=O)N[C@@H](Cc1c[nH]cn1)C(=O)N[C@@H](CCCCN)C(=O)N[C@@H](CCCCN)C(=O)N[C@@H](CCC(=O)O)C(N)=O [listing 1 of 2 here]	–	3.57 µM
CC[C@H](C)[C@H](NC(=O)[C@@H](Cc1ccccc1)NC(=O)[C@@H](Cc1c[nH]c2ccccc12)NC(=O)[C@@H](N)CCCN=C(N)N)C(=O)N[C@H](Cc1ccccc1)C(=O)N[C@@H](Cc1c[nH]cn1)C(=O)N[C@@H](CCCCN)C(=O)N[C@@H](CCCCN)C(=O)N1CCC[C@H]1C(N)=O	2.43 µM (≈ 3.06 µg/mL)	3.89 µM
CC[C@H](C)[C@H](NC(=O)[C@@H](Cc1ccccc1)NC(=O)[C@@H](Cc1c[nH]c2ccccc12)NC(=O)[C@@H](N)CCCN=C(N)N)C(=O)N[C@H](Cc1ccccc1)C(=O)N[C@@H](Cc1c[nH]cn1)C(=O)N[C@@H](CCCCN)C(=O)N[C@@H](CCCCN)C(=O)N[C@@H](Cc1c[nH]cn1)C(N)=O [listing 1 of 2 here]	2.36 µM (≈ 3.06 µg/mL)	–
CC[C@H](C)[C@H](NC(=O)[C@@H](Cc1ccccc1)NC(=O)[C@@H](Cc1c[nH]c2ccccc12)NC(=O)[C@@H](N)CCCN=C(N)N)C(=O)N[C@H](Cc1ccccc1)C(=O)N[C@@H](Cc1c[nH]cn1)C(=O)N[C@@H](CCCCN)C(=O)N[C@@H](CCCCN)C(=O)N[C@@H](CC(N)=O)C(N)=O	2.4 µM (≈ 3.06 µg/mL)	3.35 µM
NCCCC[C@H](NC(=O)[C@@H](Cc1ccccc1)NC(=O)[C@H](Cc1ccccc1)NC(=O)[C@@H](Cc1ccccc1)NC(=O)[C@@H](Cc1c[nH]c2ccccc12)NC(=O)[C@@H](N)Cc1c[nH]cn1)C(N)=O (H-H[dW][dF]F[dF]K-NH2)	6.81 µM (≈ 6.2 µg/mL)	–
CC[C@H](C)[C@H](NC(=O)[C@@H](Cc1ccccc1)NC(=O)[C@@H](Cc1c[nH]c2ccccc12)NC(=O)[C@@H](N)CCCN=C(N)N)C(=O)N[C@H](Cc1ccccc1)C(=O)N[C@@H](Cc1c[nH]cn1)C(=O)N[C@@H](CCCCN)C(=O)N[C@@H](CCCCN)C(=O)N[C@@H](CC(=O)O)C(N)=O [listing 1 of 2 here]	4.8 µM (≈ 6.12 µg/mL)	–
CC[C@H](C)[C@H](NC(=O)[C@@H](Cc1ccccc1)NC(=O)[C@@H](Cc1c[nH]c2ccccc12)NC(=O)[C@@H](N)CCCN=C(N)N)C(=O)N[C@H](Cc1ccccc1)C(=O)N[C@@H](Cc1c[nH]cn1)C(=O)N[C@@H](CCCCN)C(=O)N[C@@H](CCCCN)C(=O)N[C@@H](Cc1c[nH]cn1)C(N)=O [listing 2 of 2 here]	–	1.9 µM
CC[C@H](C)[C@H](NC(=O)[C@@H](Cc1ccccc1)NC(=O)[C@@H](Cc1c[nH]c2ccccc12)NC(=O)[C@@H](N)CCCN=C(N)N)C(=O)N[C@H](Cc1ccccc1)C(=O)N[C@@H](Cc1c[nH]cn1)C(=O)N[C@@H](CCCCN)C(=O)N[C@@H](CCCN=C(N)N)C(=O)N[C@@H](C)C(N)=O	4.96 µM (≈ 6.25 µg/mL)	5.99 µM
CC[C@H](C)[C@H](NC(=O)[C@@H](Cc1ccccc1)NC(=O)[C@@H](Cc1c[nH]c2ccccc12)NC(=O)[C@@H](N)CCCN=C(N)N)C(=O)N[C@H](Cc1ccccc1)C(=O)N[C@@H](Cc1c[nH]cn1)C(=O)N[C@@H](CCCCN)C(=O)N[C@@H](CCCCN)C(=O)N[C@@H](CC(=O)O)C(N)=O [listing 2 of 2 here]	–	3.52 µM
CC[C@H](C)[C@H](NC(=O)[C@@H](Cc1ccccc1)NC(=O)[C@@H](Cc1c[nH]c2ccccc12)NC(=O)[C@@H](N)CCCN=C(N)N)C(=O)N[C@H](Cc1ccccc1)C(=O)N[C@@H](Cc1c[nH]cn1)C(=O)N[C@@H](CCCCN)C(=O)N[C@@H](CCCCN)C(=O)N[C@@H](Cc1ccc(O)cc1)C(N)=O	1.16 µM (≈ 1.54 µg/mL)	2.74 µM
CC[C@H](C)[C@H](NC(=O)[C@@H](Cc1ccccc1)NC(=O)[C@@H](Cc1c[nH]c2ccccc12)NC(=O)[C@@H](N)CCCN=C(N)N)C(=O)N[C@H](Cc1ccccc1)C(=O)N[C@@H](Cc1c[nH]cn1)C(=O)N[C@@H](CCCCN)C(=O)N[C@@H](CCCCN)C(=O)N[C@@H](Cc1ccccc1)C(N)=O [listing 1 of 2 here]	–	> 7 µM
CC[C@H](C)[C@H](NC(=O)[C@@H](Cc1ccccc1)NC(=O)[C@@H](Cc1c[nH]c2ccccc12)NC(=O)[C@@H](N)CCCN=C(N)N)C(=O)N[C@H](Cc1ccccc1)C(=O)N[C@@H](Cc1c[nH]cn1)C(=O)N[C@@H](CCCCN)C(=O)N[C@@H](CCCCN)C(=O)N[C@@H](C)C(N)=O [listing 1 of 2 here]	–	3.17 µM
CC[C@H](C)[C@H](NC(=O)[C@@H](Cc1ccccc1)NC(=O)[C@@H](Cc1c[nH]c2ccccc12)NC(=O)[C@@H](N)CCCN=C(N)N)C(=O)N[C@H](Cc1ccccc1)C(=O)N[C@@H](Cc1c[nH]cn1)C(=O)N[C@@H](CCCCN)C(=O)N[C@@H](CCCCN)C(=O)NCC(N)=O [listing 1 of 2 here]	–	2.77 µM

More lines, main results first:

MIC (Cryptococcus neoformans)	SMILES	IC50 (Candida albicans)
2.37 µM (≈ 3.06 µg/mL)	CC[C@H](C)[C@H](NC(=O)[C@@H](Cc1ccccc1)NC(=O)[C@@H](Cc1c[nH]c2ccccc12)NC(=O)[C@@H](N)CCCN=C(N)N)C(=O)N[C@H](Cc1ccccc1)C(=O)N[C@@H](Cc1c[nH]cn1)C(=O)N[C@@H](CCCCN)C(=O)N[C@@H](CCCCN)C(=O)N[C@@H](CCSC)C(N)=O	2.62 µM
2.39 µM (≈ 3.11 µg/mL)	CC[C@H](C)[C@H](NC(=O)[C@H](CCCN=C(N)N)NC(=O)[C@H](CCCCN)NC(=O)[C@H](Cc1c[nH]cn1)NC(=O)[C@@H](Cc1ccccc1)NC(=O)[C@@H](NC(=O)[C@@H](Cc1ccccc1)NC(=O)[C@@H](Cc1c[nH]c2ccccc12)NC(=O)[C@@H](N)CCCN=C(N)N)[C@@H](C)CC)C(N)=O	4.64 µM
4.67 µM (≈ 6.24 µg/mL)	CC[C@H](C)[C@H](NC(=O)[C@@H](Cc1ccccc1)NC(=O)[C@@H](Cc1c[nH]c2ccccc12)NC(=O)[C@@H](N)CCCN=C(N)N)C(=O)N[C@H](Cc1ccccc1)C(=O)N[C@@H](Cc1c[nH]cn1)C(=O)N[C@@H](CCCCN)C(=O)N[C@@H](CCCN=C(N)N)C(=O)N[C@@H](Cc1ccccc1)C(N)=O	5.5 µM
4.84 µM (≈ 6.24 µg/mL)	CC[C@H](C)[C@H](NC(=O)[C@@H](Cc1ccccc1)NC(=O)[C@@H](Cc1c[nH]c2ccccc12)NC(=O)[C@@H](N)CCCN=C(N)N)C(=O)N[C@H](Cc1ccccc1)C(=O)N[C@@H](Cc1c[nH]cn1)C(=O)N[C@@H](CCCCN)C(=O)N[C@@H](CCCN=C(N)N)C(=O)N[C@H](C(N)=O)[C@@H](C)O	5.97 µM
4.85 µM (≈ 6.24 µg/mL)	CC[C@H](C)[C@H](NC(=O)[C@@H](Cc1ccccc1)NC(=O)[C@@H](Cc1c[nH]c2ccccc12)NC(=O)[C@@H](N)CCCN=C(N)N)C(=O)N[C@H](Cc1ccccc1)C(=O)N[C@@H](Cc1c[nH]cn1)C(=O)N[C@@H](CCCCN)C(=O)N[C@@H](CCCN=C(N)N)C(=O)N[C@H](C(N)=O)C(C)C	4.88 µM
4.62 µM (≈ 6.24 µg/mL)	CC[C@H](C)[C@H](NC(=O)[C@@H](Cc1ccccc1)NC(=O)[C@@H](Cc1c[nH]c2ccccc12)NC(=O)[C@@H](N)CCCN=C(N)N)C(=O)N[C@H](Cc1ccccc1)C(=O)N[C@@H](Cc1c[nH]cn1)C(=O)N[C@@H](CCCCN)C(=O)N[C@@H](CCCN=C(N)N)C(=O)N[C@@H](Cc1ccc(O)cc1)C(N)=O	7.08 µM
2.45 µM (≈ 3.06 µg/mL)	CC[C@H](C)[C@H](NC(=O)[C@@H](Cc1ccccc1)NC(=O)[C@@H](Cc1c[nH]c2ccccc12)NC(=O)[C@@H](N)CCCN=C(N)N)C(=O)N[C@H](Cc1ccccc1)C(=O)N[C@@H](Cc1c[nH]cn1)C(=O)N[C@@H](CCCCN)C(=O)N[C@@H](CCCCN)C(=O)N[C@@H](CO)C(N)=O	1.77 µM
2.37 µM (≈ 3.06 µg/mL)	CC[C@H](C)[C@H](NC(=O)[C@@H](Cc1ccccc1)NC(=O)[C@@H](Cc1c[nH]c2ccccc12)NC(=O)[C@@H](N)CCCN=C(N)N)C(=O)N[C@H](Cc1ccccc1)C(=O)N[C@@H](Cc1c[nH]cn1)C(=O)N[C@@H](CCCCN)C(=O)N[C@@H](CCCCN)C(=O)N[C@@H](CCC(=O)O)C(N)=O [listing 2 of 2 here]	–
2.42 µM (≈ 3.11 µg/mL)	CC[C@H](C)[C@H](NC(=O)[C@@H](Cc1ccccc1)NC(=O)[C@@H](Cc1c[nH]c2ccccc12)NC(=O)[C@@H](N)CCCN=C(N)N)C(=O)N[C@H](Cc1ccccc1)C(=O)N[C@@H](Cc1c[nH]cn1)C(=O)N[C@@H](CCCCN)C(=O)N[C@@H](CCCN=C(N)N)C(=O)N1CCC[C@H]1C(N)=O	4.7 µM
2.32 µM (≈ 3.05 µg/mL)	CC[C@H](C)[C@H](NC(=O)[C@@H](Cc1ccccc1)NC(=O)[C@@H](Cc1c[nH]c2ccccc12)NC(=O)[C@@H](N)CCCN=C(N)N)C(=O)N[C@H](Cc1ccccc1)C(=O)N[C@@H](Cc1c[nH]cn1)C(=O)N[C@@H](CCCCN)C(=O)N[C@@H](CCCCN)C(=O)N[C@@H](CCCN=C(N)N)C(N)=O	1.64 µM
1.14 µM (≈ 1.54 µg/mL)	CC[C@H](C)[C@H](NC(=O)[C@@H](Cc1ccccc1)NC(=O)[C@@H](Cc1c[nH]c2ccccc12)NC(=O)[C@@H](N)CCCN=C(N)N)C(=O)N[C@H](Cc1ccccc1)C(=O)N[C@@H](Cc1c[nH]cn1)C(=O)N[C@@H](CCCCN)C(=O)N[C@@H](CCCCN)C(=O)N[C@@H](Cc1c[nH]c2ccccc12)C(N)=O	2.61 µM
> 7 µM	CC[C@H](C)[C@H](NC(=O)[C@@H](Cc1ccccc1)NC(=O)[C@@H](Cc1c[nH]c2ccccc12)NC(=O)[C@@H](N)CCCN=C(N)N)C(=O)N[C@H](Cc1ccccc1)C(=O)N[C@@H](Cc1c[nH]cn1)C(=O)N[C@@H](CCCCN)C(=O)N[C@@H](CCCCN)C(=O)N[C@@H](Cc1ccccc1)C(N)=O [listing 2 of 2 here]	–
6.86 µM (≈ 6.2 µg/mL)	CC[C@H](C)[C@H](NC(=O)[C@@H](Cc1ccccc1)NC(=O)[C@@H](Cc1c[nH]c2ccccc12)NC(=O)[C@@H](N)CCCN=C(N)N)C(=O)N[C@H](Cc1ccccc1)C(=O)N[C@@H](Cc1c[nH]cn1)C(N)=O (H-R[dW][dF]I[dF]H-NH2)	–
2.51 µM (≈ 3.06 µg/mL)	CC[C@H](C)[C@H](NC(=O)[C@@H](Cc1ccccc1)NC(=O)[C@@H](Cc1c[nH]c2ccccc12)NC(=O)[C@@H](N)CCCN=C(N)N)C(=O)N[C@H](Cc1ccccc1)C(=O)N[C@@H](Cc1c[nH]cn1)C(=O)N[C@@H](CCCCN)C(=O)N[C@@H](CCCCN)C(=O)NCC(N)=O [listing 2 of 2 here]	–
2.48 µM (≈ 3.05 µg/mL)	CC[C@H](C)[C@H](NC(=O)[C@@H](Cc1ccccc1)NC(=O)[C@@H](Cc1c[nH]c2ccccc12)NC(=O)[C@@H](N)CCCN=C(N)N)C(=O)N[C@H](Cc1ccccc1)C(=O)N[C@@H](Cc1c[nH]cn1)C(=O)N[C@@H](CCCCN)C(=O)N[C@@H](CCCCN)C(=O)N[C@@H](C)C(N)=O [listing 2 of 2 here]	–
